Test results reported in US20240317741A1, “NAPHTHYRIDINE DERIVATIVE AS ATR INHIBITOR AND METHOD FOR PREPARING SAME” (WIGEN BIOMEDICINE TECHNOLOGY (SHANGHAI) CO., LTD., priority 2021, published 2024).

Columns and labels:
[1] = Liver microsomal stability (mouse); assay type: in vitro ADME; conditions: mouse liver microsomes, 1 μM compound, NADPH regeneration system, 37° C.
Procedure: (§1) After 1 μM compound was incubated with 500 µg/mL of human or mouse liver microsomes and a NADPH regeneration system at 37° C. for different times, respectively, LC-MS-MS was used to analyze the remaining amount of the compound and calculate T1/2.

[2] = In vivo pharmacokinetic experiment in mice; set-up: species or system CD-1 female mice
Procedure: CD-1 female mice aged 7 to 10 weeks were intravenously administered and orally administered at a dose of 2 mg/kg and 10 mg/kg, respectively. The mice were fasted for at least 12 h before the administration and given food 4 h after the administration, and they were given ad libitum access to water during the experiment.
On the day of the experiment, animals in the intravenous group were administered the corresponding compound by single injection via the tail vein at an administration volume of 10 mL/kg, and animals in the oral group were administered the corresponding compound by single intragastric injection at an administration volume of 10 mL/kg. The animals were weighed before administration, and the administration volume was calculated according to the body weight. The sample collection time was 0.083 h, 0.167 h, 0.5 h, 1 h, 2 h, 4 h, 8 h and 24 h. About 200 μL of whole blood was collected through the orbital venous plexus at each time point and used to prepare plasma for concentration determination by high performance liquid chromatography-tandem mass spectrometry (LC-MS/MS). The plasma concentrations were processed using a non-compartmental model of Winnolin pharmacokinetic software, and the pharmacokinetic parameters were calculated using a linear-log trapezoidal method.

[3] = tested on: Human colon cancer LOVO cells; test: In vivo efficacy in LoVo model; set-up: species or system nude mouse; conditions: LoVo model in nude mice, 20 mpk BID PO, days 1-3, 8-10, 15-17 and day 21
Procedure: After being subcultured, the cells were collected when they reached the desired amount. 1×10^7 LOVO cells were injected into the left dorsal side of each nude mouse, and the animals were randomly grouped for administration after tumors grew to 100-200 mm^3. The groups were as follows: a solvent control group of 8 mice and a compound group of 8 mice. The compounds were administered orally 3 days a week and interrupted for 4 days, for 21 consecutive days. The vehicle was a 0.5% MC suspension containing 1% tween-80. On Tuesday and Thursday each week, tumor volumes and body weight of the mice were measured, and the nude mice were sacrificed on day 21 after the administration. […] The toxicity of the compounds was evaluated according to the body weight of the mice.

[4] = Liver microsomal stability (human); assay type: in vitro ADME; conditions: human liver microsomes, 1 μM compound, NADPH regeneration system, 37° C.
Procedure: as §1

[5] = tested on: Human colon cancer HT29 cells; test: In vivo efficacy in HT-29 model, alone and with gemcitabine; set-up: species or system nude mouse; conditions: HT-29 model in nude mice, day 21
Procedure: After being subcultured, the cells were collected when they reached the desired amount. 1×10^7 HT29 cells were injected into the left dorsal side of each nude mouse, and the animals were randomly grouped for administration after tumors grew to 100-200 mm^3. The groups were as follows: a solvent control group of 6 mice, a single drug group of 15 mg/kg gemcitabine (GMC), and a combination group of 15 mg/kg gemcitabine and a compound. Gemcitabine was administered intraperitoneally with PBS as a vehicle once a week. The compounds were administered 3 days a week and interrupted for 4 days (3 on/4 off), for 21 consecutive days, and the vehicle was a 0.5% MC suspension containing 1% tween-80. On Tuesday and Thursday each week, tumor volumes and body weight of the mice were measured, and the nude mice were sacrificed on day 21 after the administration. […] The toxicity of the compounds was evaluated according to the body weight of the mice.

[6] = Pharmacokinetic evaluation in rats; assay type: in vivo, SD female rats
Procedure: SPF-grade SD female rats aged 7 to 10 weeks were intravenously administered and orally administered at a dose of 1 mg/kg and 10 mg/kg, respectively. The rats were fasted for at least 12 h before the administration and given food 4 h after the administration, and they were given ad libitum access to water during the experiment.
On the day of the experiment, animals in the intravenous group were administered the corresponding compound by single injection via the tail vein at an administration volume of 2 mL/kg, and animals in the oral group were administered the corresponding compound by single intragastric injection at an administration volume of 10 mL/kg. The animals were weighed before administration, and the administration volume was calculated according to the body weight. The sample collection time was 0.083 h (only intravenous group), 0.125 h (only oral group), 0.25 h, 0.5 h, 1 h, 2 h, 4 h, 6 h, 8 h and 24 h. About 200 μL of whole blood (EDTA-K2 anticoagulated) was collected via the jugular vein or other suitable vein at each time point and used to prepare plasma for concentration determination by high performance liquid chromatography-tandem mass spectrometry (LC-MS/MS). All animals were suffocated by CO2 after the PK samples were collected at the last time point. The plasma concentrations were processed using a non-compartmental model of Winnolin™ version 8.2 (Pharsight, mountain View, CA) pharmacokinetic software, and the pharmacokinetic parameters were calculated using a linear-log trapezoidal method.

MIA PaCa-2 cells [7] = test: In-vitro anti-proliferative activity against MIA PaCa-2 cells; assay type: cell-based; conditions: 72 h after dosing, intracellular ATP content
Procedure: MIA PaCa-2 cells were seeded on a 384-well plate at 3000 cells/well. After overnight adherence culture, DMSO or the compounds serially diluted 1:5 from 5 μM were added. […] The inhibition percentage of viable cells by the compounds was calculated by comparing with the DMSO group, and the IC50 value was calculated.

MIA PaCa-2 cells [8] = test: In-vitro anti-proliferative activity in combination with gemcitabine against MIA PaCa-2 cells; assay type: cell-based; conditions: in combination with 20 nM gemcitabine, 72 h after dosing
Procedure: MIA PaCa-2 cells were seeded on a 384-well plate at 3000 cells/well, and 20 nM gemcitabine was added. After overnight adherence culture, DMSO or the compounds serially diluted 1:5 from 100 nM were added. […] The inhibition percentage of viable cells by the compounds was calculated by comparing with the DMSO group, and the IC50 value was calculated.

[9] = female, CD-1, mouse, plasma, Oral administration (10 mg/kg)
[10] = female, CD-1, mouse, plasma, iv, Injection (2 mg/kg)
[11] = compound 20 mpk BID PO 3 on/4 off + GMC 15 mpk QW IP
[12] = female, SD, rat, plasma, Oral administration (10 mg/kg)
[13] = female, SD, rat, plasma, iv, Injection (1 mg/kg)

C[C@@H]1COCCN1c1cc(C2(C#N)CCOCC2)c2ccnc(-c3ccn[nH]3)c2n1 [Compound 29]
half-life at 1 μM ([1]; read-out: T1/2 (min) Mouse): 8.68 min | AUC(0-t) [2, 9]: 3300 ng·h/mL | bioavailability [2, 9]: 34.5% | half-life [2, 9]: 46.8 min | Cmax ([2]; female, CD-1, mouse, plasma, Oral administration (10 mg/kg), read-out: Cmax): 1720 ng/mL | Tmax ([2]; female, CD-1, mouse, plasma, Oral administration (10 mg/kg), read-out: Tmax): 30 min | AUC(0-t) [2, 10]: 1920 ng·h/mL | clearance [2, 10]: 17.4 mL/min/kg | half-life [2, 10]: 40.2 min | Vd ([2]; female, CD-1, mouse, plasma, iv, Injection (2 mg/kg), read-out: Vdss): 0.58 L/kg | TGI(%) [3]: 83.2% | half-life at 1 μM ([4]; read-out: T1/2 (min) Human): 51.4 min | TGI(%) [5, 11]: 85.3% | TGI(%) ([5]; single agent, 20 mpk BID PO, 3on/4off): 49.9% | AUC(0-t) [6, 12]: 8030 ng·h/mL | bioavailability [6, 12]: 120% | half-life [6, 12]: 171 min | Cmax ([6]; female, SD, rat, plasma, Oral administration (10 mg/kg), read-out: Cmax): 1550 ng/mL | Tmax ([6]; female, SD, rat, plasma, Oral administration (10 mg/kg), read-out: Tmax): 60 min | AUC(0-t) [6, 13]: 669 ng·h/mL | clearance [6, 13]: 24.9 mL/min/kg | half-life [6, 13]: 103 min | Vd ([6]; female, SD, rat, plasma, iv, Injection (1 mg/kg), read-out: Vdss): 3 L/kg | IC50 (MIA PaCa-2 cells [7]; Homo sapiens): < 1000 nM | IC50 (MIA PaCa-2 cells [8]): 1.5 nM

(R)-1-(2-(3-methylmorpholino)-8-(1H-pyrazol-5-yl)-1,7-naphthyridin-4-ylmethyl)cyclohexane-1-carbonitrile [Compound 25]
T1/2 (min) Mouse [1]: 2.90 min | AUC0-last ([2]; Injection (2 mg/kg)): 203.21 ng·h/mL | Cl ([2]; Injection (2 mg/kg)): 82.02 mL/min/kg | T1/2 ([2]; Injection (2 mg/kg)): 19.8 min | Vdss ([2]; Injection (2 mg/kg)): 1.84 L/kg | AUC0-last ([2]; Oral administration (10 mg/kg)): 1103.1 ng·h/mL | Cmax ([2]; Oral administration (10 mg/kg)): 455 ng/mL | F % ([2]; Oral administration (10 mg/kg)): 54.3% | T1/2 ([2]; Oral administration (10 mg/kg)): 53.4 min | Tmax ([2]; Oral administration (10 mg/kg)): 60 min | TGI(%) [3]: 84.0% | T1/2 (min) Human [4]: 7.90 min | TGI(%) [5, 11]: 86.1% | AUC0-last ([6]; Injection (1 mg/kg)): 269.92 ng·h/mL | Cl ([6]; Injection (1 mg/kg)): 61.75 mL/min/kg | T1/2 ([6]; Injection (1 mg/kg)): 39 min | Vdss ([6]; Injection (1 mg/kg)): 2.14 L/kg | AUC0-last ([6]; Oral administration (10 mg/kg)): 1309.43 ng·h/mL | Cmax ([6]; Oral administration (10 mg/kg)): 396.33 ng/mL | F % ([6]; Oral administration (10 mg/kg)): 48.5% | T1/2 ([6]; Oral administration (10 mg/kg)): 30 min | Tmax ([6]; Oral administration (10 mg/kg)): 54 min | IC50 (MIA PaCa-2 cells [7]): < 1000 nM | IC50 (MIA PaCa-2 cells [8]): 0.257 nM
